The values that follow come from EP0970046B1, “N-HYDROXY-2-(ALKYL, ARYL, OR HETEROARYL SULFANYL, SULFINYL OR SULFONYL)-3-SUBSTITUTED ALKYL, ARYL OR HETEROARYLAMIDES AS MATRIX METALLOPROTEINASE INHIBITORS” (Wyeth Holdings Corporation, priority 1997, dated 1998).

Like-named read-outs stand apart in the source and are kept apart here.

One may read the inhibition as the percentage by which the read-out fell short of the control.

Format in all cases: biochemical
In one test the target is T1, TACE (Homo sapiens, UniProt P78536).
T1 construct: purchased Immunex
Put plainly: Procedure for Measuring TACE Inhibition. To be noted: for inhibition at 1 µM: read-out: TACE % inhibition at 1 micromolar; for IC50: read-out: TACE IC 50. The gist of the method: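 Single-concentration screen: test compound at 1 µM final, 10-min room-temperature preincubation with 1 µg/mL protease in Tris pH 7.4 buffer containing glycerol. Initial rate from linear fluorescence increase (340/420 nm) over 10 min after adding 100 µM peptidyl substrate; significance versus control rate by Dunnett's test.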

Another test addresses T2, MMP 1 (Homo sapiens, UniProt P03956).
T2 construct: human recombinant fibroblast collagenase (truncated, mw= 18,828, WAR, Radnor)
T2 sequence (P03956 100-269 limits assumed): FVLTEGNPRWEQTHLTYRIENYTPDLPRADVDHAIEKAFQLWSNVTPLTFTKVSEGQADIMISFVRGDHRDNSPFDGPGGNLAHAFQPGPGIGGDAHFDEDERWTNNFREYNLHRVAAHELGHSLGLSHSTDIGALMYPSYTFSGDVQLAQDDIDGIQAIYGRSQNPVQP
Put plainly: In Vitro Collagenase Assay. To be noted: human recombinant fibroblast collagenase; for inhibition at 1 µM: read-out: MMP 1 % inhibition at 1 micromolar; for IC50: read-out: MMP 1 IC 50. The gist of the method:
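Collagenase (5 nM final) cleaves the quenched fluorogenic peptide Dnp-Pro-Cha-Gly-Cys(Me)-His-Ala-Lys(NMa)-NH2 (10 µM final) in HCBC buffer. Solvent is below 1.0%, and the reaction is started with substrate. Rate is taken from the fluorescence slope (r^2 >0.85), and drug-treated rates are compared with control by Dunnett's test.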

Another test addresses MMP 13 (Homo sapiens, UniProt P45452). Put plainly: MMP 13 inhibition (IC50 / manual assay; method not described). Conditions: for inhibition at 1 µM: read-out: MMP 13 % inhibition at 1 micromolar.
The next test concerns the target T3, MMP 9 (Homo sapiens, UniProt P14780).
T3 construct: from tissue; host or cells: human neutrophils
Put plainly: In Vitro Gelatinase Assay. To be noted: human neutrophil gelatinase B; for inhibition at 1 µM: read-out: MMP 9 % inhibition at 1 micromolar; for IC50: read-out: MMP 9 IC 50. The gist of the method:
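Human MMP-9 cleaves thiopeptide Ac-Pro-Leu-Gly(2-mercapto-4-methyl-pentanoyl)-Leu-Gly-OEt, with the released thiol reacting with DTNB. Substrate and DTNB were diluted together to 1 mM in 50 mM HEPES pH 7.5, 5 mM CaCl2. Rate came from the OD405 slope (r^2 >0.85), compared with control by Dunnett's test.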

T3 sequence (P14780 94-707): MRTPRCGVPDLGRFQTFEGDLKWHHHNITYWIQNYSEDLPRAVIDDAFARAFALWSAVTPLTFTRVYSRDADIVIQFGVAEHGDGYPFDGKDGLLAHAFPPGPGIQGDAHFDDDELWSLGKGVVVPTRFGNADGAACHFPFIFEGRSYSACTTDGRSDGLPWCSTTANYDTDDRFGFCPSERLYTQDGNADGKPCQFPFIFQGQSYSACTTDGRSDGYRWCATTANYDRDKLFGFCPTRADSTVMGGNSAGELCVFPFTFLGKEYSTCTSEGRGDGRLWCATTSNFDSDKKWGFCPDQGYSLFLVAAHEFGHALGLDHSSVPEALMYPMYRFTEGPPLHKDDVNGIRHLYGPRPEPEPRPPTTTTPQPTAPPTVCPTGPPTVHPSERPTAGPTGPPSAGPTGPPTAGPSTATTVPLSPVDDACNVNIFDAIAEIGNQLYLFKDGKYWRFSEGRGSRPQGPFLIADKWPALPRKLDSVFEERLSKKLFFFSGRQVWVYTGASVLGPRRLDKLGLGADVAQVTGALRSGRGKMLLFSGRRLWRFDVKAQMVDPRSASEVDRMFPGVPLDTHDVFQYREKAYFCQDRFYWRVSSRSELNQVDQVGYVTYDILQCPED
T1 sequence (P78536 215-824): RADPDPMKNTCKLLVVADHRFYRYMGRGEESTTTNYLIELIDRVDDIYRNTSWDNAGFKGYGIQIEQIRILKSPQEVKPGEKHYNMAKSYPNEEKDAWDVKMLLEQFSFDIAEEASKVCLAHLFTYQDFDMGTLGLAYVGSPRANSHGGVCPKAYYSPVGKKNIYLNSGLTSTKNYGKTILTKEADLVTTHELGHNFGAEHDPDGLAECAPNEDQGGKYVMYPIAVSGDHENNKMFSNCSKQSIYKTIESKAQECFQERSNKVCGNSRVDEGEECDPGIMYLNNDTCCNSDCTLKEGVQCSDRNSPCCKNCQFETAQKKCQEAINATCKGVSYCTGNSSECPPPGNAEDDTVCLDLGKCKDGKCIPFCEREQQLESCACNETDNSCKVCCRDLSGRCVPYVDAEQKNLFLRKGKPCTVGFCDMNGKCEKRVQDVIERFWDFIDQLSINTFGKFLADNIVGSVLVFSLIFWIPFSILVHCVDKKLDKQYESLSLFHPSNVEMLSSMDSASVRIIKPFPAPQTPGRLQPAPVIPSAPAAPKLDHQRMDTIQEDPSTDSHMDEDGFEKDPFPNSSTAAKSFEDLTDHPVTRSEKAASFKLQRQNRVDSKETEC

For the compound `Cn1ccnc1S(=O)(=O)C(C)(Cc1ccc(-c2ccccc2)cc1)C(=O)NO` (stereo not shown) [Example 47, 3-Biphenyl-4-yl-2-methyl-2-(1-methyl-1H-imidazole-2-sulfonyl)-propionic acid hydroxyamide], the inhibition at 1 µM on TACE stood at 3.3%; at MMP 1 (1 micromolar), 17.1%; at MMP 13 it was 7.12%; at MMP 9 (1 micromolar), 12.9%.

Consider `COc1ccc(S(=O)(=O)C2(C(=O)NO)CCN(Cc3ccc(F)cc3)CC2)cc1` [Example 99, 1-(4-Fluoro-benzyl)-4-(4-methoxy-benzenesulfonyl)-piperidine-4-carboxylic acid hydroxyamide], for which the IC50 at TACE came to 250 nM; on MMP 1, 656 nM; at MMP 13 (read-out: MMP 13 IC 50) it was 2.4 nM; at MMP 9 it was 16.2 nM.

For `COc1ccc(S(=O)(=O)C(C)(Cc2cccc(OCCN3CCOCC3)c2)C(=O)NO)cc1` (stereo not shown) [Example 30, N-Hydroxy-2-(4-methoxy-benzenesulfonyl)-2-methyl-3-[3-(2-morpholin-1-yl-ethoxy)-phenyl]-propionamide], on TACE, the inhibition at 1 µM was determined as 25.2%. For the same compound, the figures for the IC50 on MMP 1, at MMP 13 (read-out: MMP 13 IC 50) and at MMP 9 were 397 nM, 5.7 nM and 8.1 nM, respectively.

As for `COc1ccc(S(=O)(=O)C2(C(=O)NO)CCCC2)cc1` [Example 54, 1-(4-Methoxy-benzenesulfonyl)-cyclopentanecarboxylic acid hydroxyamide], at TACE, the inhibition at 1 µM is 55.1%. For the same compound, the IC50 on MMP 1 is 110 nM; at MMP 13 (read-out: MMP 13 IC 50) it was 21 nM; on MMP 9 it was 66 nM.

In the case of `Cc1occc1S(=O)(=O)C(C)(Cc1ccccc1)C(=O)NO` (stereo not shown) [Example 43, 2-Methyl-2-(2-methyl-furan-3-sulfonyl)-3-phenyl-propionic acid hydroxamide], the inhibition at 1 µM at TACE was 46.6%; at MMP 1 (1 micromolar) it was 66.1%; at MMP 13, 55.5%; on MMP 9 (1 micromolar), 34.7%.

Consider `COc1ccc(S(=O)(=O)C(CCCc2ccccc2)(CCCc2ccccc2)C(=O)NO)cc1` [Example 57, 2-(4-methoxy-benzenesulfonyl)-5-phenyl-2-(3-phenyl-propyl)-pentanoic acid hydroxyamide], for which the inhibition at 1 µM on TACE was found to be 16.6%. Besides, the IC50 on MMP 1 was determined as 258 nM; on MMP 13 (read-out: MMP 13 IC 50), 191 nM; at MMP 9, 332 nM.

For `COc1ccc(S(=O)(=O)C(C)(Cc2cccc(OCCN3CCCCC3)c2)C(=O)NO)cc1` (stereo not shown) [Example 22, N-Hydroxy-2-(4-methoxy-benzenesulfonyl)-2-methyl-3-[3-(2-piperidin-1-yl-ethoxy)-phenyl]-propionamide], the inhibition at 1 µM on TACE stood at 30%. Moreover, the results for the IC50 at MMP 1, at MMP 13 (read-out: MMP 13 IC 50) and on MMP 9 were 219 nM, 2.5 nM and 3.2 nM, respectively.

`CC(Cc1ccccc1)(C(=O)NO)S(=O)(=O)c1cccs1` (stereo not shown) [Example 48, 2-Methyl-3-phenyl-2-(thiophene-2-sulfonyl)-propionic acid hydroxamide]: the inhibition at 1 µM at TACE is 51.1%; at MMP 1 (1 micromolar), 99.1%; at MMP 9 (1 micromolar), 79.1%. For the same compound, the “MMP 13 % inhibition at 1 micromolar” value on MMP 13 is 85.4%.

Regarding `CCCC(Cc1ccc(OCCN2CCCCCC2)cc1)(C(=O)NO)S(=O)(=O)c1ccc(OC)cc1` (stereo not shown) [Example 19, 2-[4-(2-Azepan-1-yl-ethoxy)-benzyl]-2-(4-methoxy-benzenesulfonyl)-pentanoic acid hydroxyamide], at TACE, the inhibition at 1 µM was found to be 33.1%. For the same compound, the IC50 on MMP 1 was 446 nM; at MMP 13 (read-out: MMP 13 IC 50), 4.8 nM; on MMP 9, 95.8 nM.

As to `COc1ccc([S+]([O-])C(C)(CC=C(C)C)C(=O)NO)cc1` (stereo not shown) [Example 6, 2-(4-Methoxy-benzenesulfinyl)-2,5-dimethyl-hex-4-enoic acid hydroxyamide], the inhibition at 1 µM at TACE came to 40.4%. Also, the IC50 on MMP 1 came out at 267 nM; at MMP 13 (read-out: MMP 13 IC 50) it was 15.6 nM; at MMP 9, 21.4 nM.

Take `CCCCCCCCS(=O)(=O)C(Cc1ccc(OCCN2CCCCC2)cc1)C(=O)NO` (stereo not shown) [Example 46, 2-(octane-1-sulfonyl)-3-[4-(2-piperidin-yl-ethoxy)-phenyl]propionic acid hydroxamide]: the “TACE % inhibition at 1 micromolar” value on TACE (1 micromolar) was 1.4%. Further, the “MMP 1 % inhibition at 1 micromolar” value on MMP 1 (1 micromolar) is recorded as 78.9%. In addition, the “MMP 13 % inhibition at 1 micromolar” value on MMP 13 was found to be 84.7%. In addition, the “MMP 9 % inhibition at 1 micromolar” value on MMP 9 (1 micromolar) is recorded as 79.12%.

For `CCCCC[C@@H](C(=O)NO)[S@@+]([O-])c1ccc(OC)cc1` (stereo in doubt) [Example 81b, 2S*-(4-methoxy-phenyl-R*- sulfinyl)-heptanoic acid hydroxyamide], the IC50 was determined as 228 nM at TACE, 3760 nM at MMP 1, 15.7 nM on MMP 13 (read-out: MMP 13 IC 50) and 154 nM on MMP 9.

For `COc1ccc(S(=O)(=O)C(CC=C(C)C)(Cc2cccnc2)C(=O)NO)cc1` (stereo not shown) [Example 63, 2-(4-Methoxy-benzenesulfonyl)-5-methyl-2-pyridin-3-ylmethyl-hex-4-enoic acid hydroxyamide], the IC50 at TACE stood at 203 nM; at MMP 1, 156 nM; against MMP 13, 3 nM; at MMP 9 it was 9 nM.

With `COc1ccc(S(=O)(=O)C(C)(Cc2ccc(Br)cc2)C(=O)NO)cc1` (stereo not shown) [Example 51, 3-(4-Bromo-phenyl)-N-hydroxy-2-(4-methoxy-benzenesulfonyl)-2-methyl-propionamide], the inhibition at 1 µM at TACE amounted to 48.1%. The IC50 on MMP 1 turned out to be 178 nM; at MMP 13 (read-out: MMP 13 IC 50), 13.1 nM; at MMP 9, 10.4 nM.

Consider `CCC(Cc1ccc(OCCN2CCOCC2)cc1)(C(=O)NO)S(=O)(=O)c1ccc(OC)cc1` (stereo not shown) [Example 33, N-Hydroxy-2-(4-methoxy-benzenesulfonyl)-2-[4-(2-morpholin-4-yl-ethoxy)-benzyl]-butyramide], for which, at TACE, the inhibition at 1 µM was found to be 23.9%. Also, the IC50 on MMP 1 was determined as 318 nM; on MMP 13 (read-out: MMP 13 IC 50), 18.4 nM; on MMP 9 it was 53.9 nM.

For the compound `Cc1occc1S(=O)(=O)C(C)(Cc1ccc(OCCN2CCCCC2)cc1)C(=O)NO` (stereo not shown) [Example 44, 2-Methyl-2-(2-methyl-furan-3-sulfonyl)-3-[4-(2-piperidin-1-yl-ethoxy)-phenyl]-propionic acid hydroxamide], the inhibition at 1 µM at TACE is 14.9%; at MMP 1 (1 micromolar) it was 47.1%; on MMP 13, 39.5%; at MMP 9 (1 micromolar), 36.9%.

Turning to `COc1ccc(SC(C(=O)NO)C(C)C)cc1` (stereo not shown) [Example 4, N-Hydroxy-2-(4-methoxy-phenylsulfanyl)-3-methyl-butyramide], the inhibition at 1 µM at TACE came to 21%; at MMP 13, 17.1%; on MMP 9 (1 micromolar) it was 22.2%. The IC50 on MMP 1 is 371 nM.

`COc1ccc(S(=O)(=O)C(C)(CC=C(C)CCC=C(C)C)C(=O)NO)cc1` (stereo not shown) [Example 15, 2-(4-methoxy-benzenesulfonyl)-2,5,9-trimethyl-deca-4,8-dienoic acid hydroxyamide]: the IC50 on TACE is 137 nM; on MMP 1, 285 nM; at MMP 13 (read-out: MMP 13 IC 50), 4 nM; at MMP 9, 17 nM.

Consider `CCCCCC(Sc1ccc(OC)cc1)C(=O)NO` (stereo not shown) [Example 80, 2-(4-methoxy-phenylsulfanyl)-heptanoic acid hydroxyamide], for which the IC50 at TACE amounted to 191 nM. The figures for the inhibition at 1 µM on MMP 1 (1 micromolar), on MMP 13 and on MMP 9 (1 micromolar) were 22.1%, 63.6% and 26%, respectively.

With `COc1ccc(S(=O)(=O)C(C)(CCCCN2C(=O)c3ccccc3C2=O)C(=O)NO)cc1` (stereo not shown) [Example 31, 6-(1,3-Dioxo-1,3-dihydro-isoindol-2-yl)-2-(4-methoxy-benzenesulfonyl)-2-methyl - hexanoic acid hydroxyamide], the IC50 was 688 nM at TACE, 162 nM at MMP 1, 5.7 nM at MMP 13 (read-out: MMP 13 IC 50) and 15.2 nM on MMP 9.

`COc1ccc(S(=O)(=O)C2(C(=O)NO)CCN(CCOc3ccccc3)CC2)cc1` [Example 107, 4-(4-methoxy-benzenesulfonyl)-1-(2-phenoxy-ethyl)-piperidine-4-carboxylic acid hydroxyamide]: the IC50 on TACE is 293 nM; at MMP 1, 629 nM; at MMP 13 (read-out: MMP 13 IC 50), 2.5 nM; at MMP 9, 26.8 nM.

As to `COc1ccc(S(=O)(=O)C(CCN(C(C)C)C(C)C)(Cc2ccccc2)C(=O)NO)cc1` (stereo not shown) [Example 64, 2-Benzyl-4-diisopropylamino-N-hydroxy-2-(4-methoxy-benzenesulfonyl)-butyramide], the inhibition at 1 µM at TACE amounted to 29.7%; at MMP 1 (1 micromolar), 40.9%; on MMP 13, 36.7%; on MMP 9 (1 micromolar), 25.6%.
